Test systems include A498 renal; ACHN renal; CAKI-1 renal; DU-145 prostate; HCT-15 colon; HS 578T breast; IGROV1 ovarian; K-562 leukemia; MDA-MB-435; MDA-N; NCI-H23 lung; NCI-H522 lung; NCI/ADR-RES ovarian; OVCAR-3 ovarian; PC-3 prostate; SK-MEL-2 melanoma; SK-MEL-5 melanoma; SR leukemia; SW-620 colon; UACC-62 melanoma.
Test in all cases: growth of human tumour cells (NCI), 48 h

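Step 1: Grow cells in 96-well plates. Step 2: Expose to compound for 48 hours at 5 concentrations. Step 3: Interpolate endpoints linearly; if unreached, use highest concentration. At the TGI there is no net growth.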 Where only a bound is given, the exact number is not on record here.

As for `O=C1Oc2ccccc2C(=O)/C1=C/N1C(=O)/C(=C/c2ccc3c(c2)OCO3)SC1=S`, the TGI stood at 13.2 µM in the test on A498 renal; 28.1 µM in the test on ACHN renal; 36.5 µM with CAKI-1 renal; 49.1 µM with DU-145 prostate; 33.2 µM in the test with HCT-15 colon; 14.9 µM in the test on HS 578T breast. Further, the TGI turned out to be 37.2 µM with IGROV1 ovarian; 35.7 µM with K-562 leukemia; 39.7 µM with MDA-MB-435; 77.7 µM with MDA-N; 30.5 µM in the test with NCI-H23 lung; 45.2 µM with NCI-H522 lung. Moreover, the TGI with NCI/ADR-RES ovarian came to 48.4 µM; in the test with OVCAR-3 ovarian it was 10.9 µM; in the test with PC-3 prostate it was 30.6 µM; with SK-MEL-2 melanoma, 34.2 µM; in the test on SK-MEL-5 melanoma it was 29.8 µM; in the test on SR leukemia, 31.4 µM. Moreover, the TGI is 43.5 µM in the test with SW-620 colon and over 47.7 µM in the test with UACC-62 melanoma.
For `C=C1[C@H](OC(=O)C(C)C)[C@@H](OC(C)=O)[C@@H](OC(C)=O)C(C)(C)[C@@H]2O[C@H]2[C@@H](C)C(=O)[C@@]2(OC(C)=O)C[C@@](C)(OC(C)=O)[C@H](OC(C)=O)[C@@H]2[C@H]1OC(C)=O`, the TGI in the test with A498 renal, in the test on ACHN renal, in the test with CAKI-1 renal, in the test on DU-145 prostate, with HCT-15 colon and in the test on HS 578T breast was over 100 µM each time. Besides, the TGI in the test on IGROV1 ovarian, in the test on K-562 leukemia, in the test with MDA-MB-435, in the test with MDA-N, with NCI-H23 lung and with NCI-H522 lung was over 100 µM each time. The TGI in the test with NCI/ADR-RES ovarian, in the test with OVCAR-3 ovarian, in the test with PC-3 prostate, in the test with SK-MEL-2 melanoma, with SK-MEL-5 melanoma and in the test on SR leukemia was over 100 µM throughout. For the same compound, the TGI in the test on SW-620 colon and in the test on UACC-62 melanoma was over 100 µM throughout.
As to `CCN1C(=S)n2cccc2C1CC(=O)c1ccc(Cl)cc1` (centres undefined), the TGI in the test on A498 renal, with ACHN renal, in the test with CAKI-1 renal, in the test on DU-145 prostate, in the test on HCT-15 colon and in the test on HS 578T breast was over 100 µM each time. Besides, the TGI with IGROV1 ovarian, in the test on K-562 leukemia, in the test with MDA-MB-435, in the test with MDA-N, in the test on NCI-H23 lung and in the test with NCI-H522 lung was over 100 µM in each case. Further, the TGI with NCI/ADR-RES ovarian, with OVCAR-3 ovarian, in the test with PC-3 prostate, in the test on SK-MEL-2 melanoma, in the test with SR leukemia and with SW-620 colon was over 100 µM throughout. The same compound gave a TGI in the test with UACC-62 melanoma of over 100 µM.
On to `O=C(NCCc1ccccc1)[C@H]1CCCC[C@@H]1CCO`, for which the TGI in the test on A498 renal, in the test on ACHN renal, in the test on CAKI-1 renal, in the test with DU-145 prostate, with HCT-15 colon and in the test with HS 578T breast was over 100 µM throughout. The TGI in the test with IGROV1 ovarian, in the test with K-562 leukemia, with MDA-MB-435, in the test with MDA-N, in the test on NCI-H23 lung and in the test with NCI-H522 lung was over 100 µM throughout. Further, the TGI in the test on NCI/ADR-RES ovarian, in the test on OVCAR-3 ovarian, in the test on PC-3 prostate, with SK-MEL-2 melanoma, with SK-MEL-5 melanoma and in the test with SR leukemia was over 100 µM throughout. Moreover, the TGI in the test with SW-620 colon and in the test with UACC-62 melanoma was over 100 µM each time.
Regarding `CCOC(=O)N1CC2(C)C=CC1C(C(=O)OC)C2` (centres undefined), the TGI in the test with A498 renal, in the test on ACHN renal, with CAKI-1 renal, with DU-145 prostate, with HCT-15 colon and in the test on HS 578T breast was over 100 µM in each case. The TGI with IGROV1 ovarian, in the test with K-562 leukemia, with MDA-MB-435, with MDA-N, in the test on NCI-H23 lung and in the test with NCI-H522 lung was over 100 µM each time. For the same compound, the TGI with NCI/ADR-RES ovarian, in the test on OVCAR-3 ovarian, in the test with PC-3 prostate, in the test with SK-MEL-2 melanoma, in the test on SK-MEL-5 melanoma and in the test with SR leukemia was over 100 µM each time. Besides, the TGI with SW-620 colon and in the test on UACC-62 melanoma was over 100 µM throughout.
Take `C/C(=C/c1ccccc1)CN(C(=O)/C=C\Sc1ccccc1)C(C)(C)C`: the TGI with A498 renal was over 100 µM; in the test with ACHN renal, over 100 µM; in the test on CAKI-1 renal, over 100 µM; in the test on DU-145 prostate it was over 100 µM; in the test on HCT-15 colon, over 100 µM; in the test with HS 578T breast it was over 47.8 µM. The TGI with IGROV1 ovarian is over 100 µM; with K-562 leukemia it was over 100 µM; with MDA-MB-435, over 100 µM; in the test with MDA-N, over 100 µM; with NCI-H23 lung, over 100 µM; in the test with NCI-H522 lung it was over 46.4 µM. Also, the TGI with NCI/ADR-RES ovarian, with OVCAR-3 ovarian, in the test with PC-3 prostate, in the test on SK-MEL-2 melanoma, with SK-MEL-5 melanoma and in the test on SR leukemia was over 100 µM throughout. In addition, the TGI in the test on SW-620 colon and with UACC-62 melanoma was over 100 µM in each case.
`N=c1oc2c(Br)cc(Br)cc2cc1C(=O)Nc1ccccn1`: the TGI in the test with A498 renal, in the test with ACHN renal, in the test with CAKI-1 renal, in the test on DU-145 prostate, with HCT-15 colon and with HS 578T breast was over 100 µM throughout. Also, the TGI with IGROV1 ovarian, in the test with K-562 leukemia, in the test on MDA-MB-435, in the test with MDA-N, with NCI-H23 lung and in the test on NCI-H522 lung was over 100 µM each time. The TGI is over 100 µM in the test with NCI/ADR-RES ovarian; over 100 µM with OVCAR-3 ovarian; over 100 µM with PC-3 prostate; 91.8 µM in the test with SK-MEL-2 melanoma; over 100 µM in the test with SK-MEL-5 melanoma; over 100 µM in the test on SR leukemia. In addition, the TGI with SW-620 colon and in the test on UACC-62 melanoma was over 100 µM throughout.

Values taken from PubChem BioAssay (NCI).
